Assay results as given in ChEMBL document CHEMBL5528035, “Design, Synthesis, and Biological Evaluation for First GPX4 and CDK Dual Inhibitors” (J Med Chem, 2024).
Active and inactive are the calls of the source. The rule behind the calls is not given here.

Columns and labels:
[1] = Cmax in Sprague-Dawley rat at 10 mg/kg,iv administration measured upto 24 hrs by LC-MS/MS analysis; type: ADME, organism-based; conditions: in vivo
[2] = AUC (0 to t) in Sprague-Dawley rat at 10 mg/kg,iv administration measured upto 24 hrs by LC-MS/MS analysis; type: ADME, organism-based; conditions: in vivo
CDK4/Cyclin D3 = CDK4/Cyclin D3 (Homo sapiens, UniProt P11802); assay: Inhibition of CDK4/CyclinD3 (unknown origin) preincubated for 15 mins followed by substrate and ATP addition incubated for 10 mins by ADP-glo luminescent assay; type: protein-complex assay
CDK6/cyclin D3 = CDK6/cyclin D3 (Homo sapiens, UniProt Q00534); assay: Inhibition of CDK6/CyclinD3 (unknown origin) preincubated for 15 mins followed by substrate and ATP addition incubated for 10 mins by ADP-glo luminescent assay; type: protein-complex assay
MDA-MB-231 [3] = assay: Induction of ferroptosis in human MDA-MB-231 cells assessed as increase in intracellular lipid peroxide level incubated for 24 hrs by […] staining based confocal laser scanning microscopic analysis; type: functional, cell-based
MDA-MB-231 [4] = assay: Induction of ferroptosis in human MDA-MB-231 cells assessed as increase in intracellular lipid peroxide level incubated for 24 hrs by flow cytometric analysis; type: functional, cell-based
MDA-MB-231 [5] = assay: Induction of ferroptosis in human MDA-MB-231 cells assessed as increase in intracellular ferrous ion level at 0.5 to 2 uM incubated for 24 hrs by ferroOrange probe based flow cytometric analysis; type: functional, cell-based; conditions: dose 0.5-2 µM
HCT-116 [6] = assay: Induction of ferroptosis in human HCT-116 cells assessed as increase in intracellular ferrous ion level at 0.5 to 2 uM incubated for 24 hrs by ferroOrange probe based confocal laser scanning microscopic analysis; type: functional, cell-based; conditions: dose 0.5-2 µM
MDA-MB-231 [7] = assay: Induction of cell cycle arrest in human MDA-MB-231 cells assessed as accumulation of cells at G1 phase at 0.5 to 2 uM incubated for 24 hrs by RNase/PI staining based flow cytometric analysis; type: functional; conditions: dose 0.5-2 µM
HCT-116 [8] = assay: Induction of cell cycle arrest in human HCT-116 cells assessed as downregulation of phoshorylated Rb at 0.5 to 2 uM incubated for 24 hrs by Western blotting analysis; type: functional, cell-based; conditions: dose 0.5-2 µM
HCT-116 [9] = assay: Induction of apoptosis in human HCT-116 cells assessed as upregulation of Bax expression at 0.5 to 2 uM incubated for 24 hrs by Western blotting analysis; type: functional, cell-based; conditions: dose 0.5-2 µM
[10] = Toxicity in BALB/c mouse xenografted with human MDA-MB-231 cells assessed as morphological change in heart at 20 mg/kg,ip administrated for 21 consecutive days by hematoxylin and eosin staining based analysis; type: organism-based; conditions: in vivo
[11] = Toxicity in BALB/c mouse xenografted with human MDA-MB-231 cells assessed as morphological change in spleen at 20 mg/kg,ip administrated for 21 consecutive days by hematoxylin and eosin staining based analysis; type: organism-based; conditions: in vivo
[12] = Toxicity in BALB/c mouse xenografted with human MDA-MB-231 cells assessed as morphological change in spleen at 40 mg/kg,ip administrated for 21 consecutive days by hematoxylin and eosin staining based analysis; type: organism-based; conditions: in vivo
[13] = Toxicity in BALB/c mouse xenografted with human MDA-MB-231 cells assessed as morphological change in lung at 40 mg/kg,ip administrated for 21 consecutive days by hematoxylin and eosin staining based analysis; type: organism-based; conditions: in vivo
[14] = Toxicity in BALB/c mouse xenografted with human MDA-MB-231 cells assessed as morphological change in kidney at 40 mg/kg,ip administrated for 21 consecutive days by hematoxylin and eosin staining based analysis; type: organism-based; conditions: in vivo
MDA-MB-231 [15] = assay: Antitumor activity against human MDA-MB-231 cells xenografted in BALB/c mouse assessed as decrease in GPX4 expression at 20 mg/kg,ip administrated for 21 consecutive days by immunohistochemistry; type: functional, organism-based
MDA-MB-231 [16] = assay: Antitumor activity against human MDA-MB-231 cells xenografted in BALB/c mouse assessed as decrease in phosphorylated Rb expression at 20 mg/kg,ip administrated for 21 consecutive days by immunohistochemistry; type: functional, organism-based
MDA-MB-231 [17] = assay: Antitumor activity against human MDA-MB-231 cells xenografted in BALB/c mouse assessed as decrease in GPX4 expression at 40 mg/kg,ip administrated for 21 consecutive days by immunohistochemistry; type: functional, organism-based
[18] = Toxicity in ICR mouse assessed as lethal dose at ip administration for 14 days; type: organism-based; conditions: in vivo, time 14 day

Chain of CDK4/Cyclin D3 (P11802 whole entry): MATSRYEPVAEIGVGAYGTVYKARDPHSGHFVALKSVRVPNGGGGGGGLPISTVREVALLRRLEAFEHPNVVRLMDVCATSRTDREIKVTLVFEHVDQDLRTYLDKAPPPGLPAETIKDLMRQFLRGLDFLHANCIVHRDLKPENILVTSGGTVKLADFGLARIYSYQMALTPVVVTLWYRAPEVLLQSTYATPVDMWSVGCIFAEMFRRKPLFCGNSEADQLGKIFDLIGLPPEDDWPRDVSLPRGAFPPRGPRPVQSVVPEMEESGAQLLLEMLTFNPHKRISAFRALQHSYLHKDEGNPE
Chain of CDK4/Cyclin D3 (P30281 whole entry, further chain): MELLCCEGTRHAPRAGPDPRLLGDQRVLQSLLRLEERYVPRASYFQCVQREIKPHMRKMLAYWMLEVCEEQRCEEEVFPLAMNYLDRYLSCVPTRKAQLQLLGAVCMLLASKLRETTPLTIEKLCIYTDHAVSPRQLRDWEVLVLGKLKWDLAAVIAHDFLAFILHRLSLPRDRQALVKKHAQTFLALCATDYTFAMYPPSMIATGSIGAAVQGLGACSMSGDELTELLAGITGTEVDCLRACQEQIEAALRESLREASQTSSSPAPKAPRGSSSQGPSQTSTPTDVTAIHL
Chain of CDK6/cyclin D3 (P30281 whole entry): as the sequence (P30281 whole entry, further chain) above
Chain of CDK6/cyclin D3 (Q00534 whole entry): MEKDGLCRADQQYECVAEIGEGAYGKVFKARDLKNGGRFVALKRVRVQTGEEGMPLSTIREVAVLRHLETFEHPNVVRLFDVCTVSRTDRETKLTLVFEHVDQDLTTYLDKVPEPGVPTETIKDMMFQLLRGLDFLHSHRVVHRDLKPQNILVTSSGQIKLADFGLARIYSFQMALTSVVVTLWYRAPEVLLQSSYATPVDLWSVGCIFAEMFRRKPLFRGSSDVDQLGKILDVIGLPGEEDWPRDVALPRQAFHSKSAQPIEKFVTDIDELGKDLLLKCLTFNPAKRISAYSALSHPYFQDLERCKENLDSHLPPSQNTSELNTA

## COc1ccc2c(c1)NC(=O)/C2=C1\Nc2ccccc2\C1=N/OCCCNC(=O)CCn1cc(COc2ccc(N(C(=O)CCl)C(C(=O)NCCc3ccccc3)c3cccs3)cc2Cl)nn1 (stereo not given)
[1]
  Cmax: 9230 ng/mL
[2]
  AUC(0-t) at 24 h: 15700 ng·h/mL
CDK4/Cyclin D3
  IC50: 191 nM
CDK6/cyclin D3
  IC50: 68.1 nM
MDA-MB-231 [3]
  Activity: Dose-Dependent Effect
MDA-MB-231 [4]
  Activity: Dose-Dependent Effect
MDA-MB-231 [5]
  Activity: Active
HCT-116 [6]
  Activity: Active
MDA-MB-231 [7]
  Activity: Active
HCT-116 [8]
  Activity: Active
HCT-116 [9]
  Activity: Active
[10]
  Activity: Non-Toxic
[11]
  Activity: Non-Toxic
[12]
  Activity: Non-Toxic
[13]
  Activity: Non-Toxic
[14]
  Activity: Non-Toxic
MDA-MB-231 [15]
  Activity: Active
MDA-MB-231 [16]
  Activity: Active
MDA-MB-231 [17]
  Activity: Active
[18]
  LD50 at 336 h: 185 mg/kg
